Data: patent US20050245465A1, “Compounds for treating Alzheimer's disease and for inhibiting beta-amyloid peptitde production” (priority 2004, published 2005)
Entries after “also recorded” stand apart in the source; their conditions may differ.

Key:
[1] = tested on: CHO cells expressing human APP; test: Secreted Aβ40/Aβ42 ELISA in medium of CHO-APP cells; format: cell-based, Chinese hamster; design: key to Aβ42-lowering activity: Aβ42-lowering activity (“Yes”); no profound effects (“No”); non-determined (“ND”); Ginsenosides that affected cell viability are indicated as “Cytotoxic.”; conditions: for Aβ42-lowering activity: Tables 1-3; for inhibitory effects on Aβ40 and Aβ42 production: 8 hours of incubation, ginsenosides from white ginseng
Protocol: The CHO cells were treated with the indicated compounds (at 50 μg/ml) for 8 hrs. Aβ42 levels in the medium were measured by ELISA and normalized to intracellular full-length APP.
The potential effects of ginsenosides and their analogues in treating AD were examined. First, a number of ginsenosides were screened based on their effects on Aβ generation. The effects of various ginsenosides on Aβ (e.g., Aβ40 and Aβ42) production was initially accessed by incubating the Chinese hamster ovary (CHO) cells expressing human APP(CHO-APP cells) with each ginsenoside purified from unprocessed ginseng (known as “white ginseng”). These representative ginsenosides included Rb1, Rb2, Rc, Rd, Re, Re, Rg1 and Rg2 and differ in their side chains and sugar moieties.
After 8 hours of incubation, the media were collected and the levels of secreted Aβ40 and Aβ42 were determined by ELISA.
Steaming ginseng at high temperature gave rise to additional ginsenosides with enhanced pharmacological activity, including (20S)Rg3, Rk1 and Rg5 (22-25). Next, the effects of these heat-processing derived ginsenosides (e.g., (20S)Rg3, Rh1, Rh2, Rk1, Rg6, Rg5) on Aβ40 and Aβ42 generation were tested. […] In contrast, Aβ42 levels were not affected by (20R)Rg3, Rh1, and Rg6. Aβ40 levels were not changed by treatment with any of the ginsenosides tested. The potency of Aβ42-lowering activity was highest with Rk1 and (20S)Rg3. […] The secretion of Aβ40 was affected by treatment with Rk1 only at very high concentration (˜100 μM) and cell viability was not affected by treatment of Rk1 under these conditions (up to 100 μM, 8 hour treatment; data not shown). […] Overnight treatment with Rgk351, Rk1, and Rg5 also reduce Aβ42 production in CHO-APP cells (FIG. 12B). […] These studies provide a structure-activity relationship between the chemical structures of ginsenosides and Aβ42-lowering activity, further providing the basis for designing additional Aβ42-lowering analogues as well as for defining a class of compounds that harbor Aβ42-lowering activity.

[2] = tested on: Neuro2a cells expressing the human Swedish mutant form of APP; test: Aβ generation in Neuro2a-SW cells; format: cell-based, mouse; conditions: for levels of Aβ42 / production of Aβ42: Neuro2a-SW, also CHO cells expressing wild-type human APP
Description: FIG. 16 depicts the effects of two major metabolites of ginsenosides, including 20(S)-protopanaxatriol (PPT) and 20(S)-protopanaxadiol (PPD) on Aβ42 generation. 20(S)-panaxatriol (PT) and 20(S)-panaxadiol (PD) are the artificial derivatives of PPT and PPPD, respectively.
Ginsenosides are metabolized by human intestinal bacteria after oral administration of ginseng extract (Kobayashi K., et al., Metabolism of ginsenoside by human intestinal bacteria [II] Ginseng Review 1994; 18: 10-14; Hasegawa H., et al., Main ginseng saponin metabolites formed by intestinal bacteria. Planta Med. 1996; 62: 453-457.). Therefore, the effects of two major metabolites of ginsenosides, including 20(S)-protopanaxatriol (PPT) and 20(S)-protopanaxadiol (PPD) on Aβ42 generation were tested. 20(S)-panaxatriol (PT) and 20(S)-panaxadiol (PD) are the artificial derivatives of PPT and PPPD, respectively.

CHO-APP/PS1 cells = test: Secreted Aβ40/Aβ42 ELISA in CHO-APP/PS1 cells; format: cell-based, Chinese hamster; conditions: 50 μM, 8 hrs
Protocol: FIG. 10 depicts the effects of native ginsenosides on Aβ42 production. CHO cells stably transfected with human APP695 together with either wild-type (A, CHO-APP/PS1 cells) or ΔE9 FAD mutant (B, CHO-APP/ΔE9PS1 cells) forms of PS1 were used. Cells were treated with the indicated compounds (at 50 μM) for 8 hrs. Levels of secreted Aβ40 and Aβ42 in the medium were determined by ELISA and normalized to intracellular full-length APP. In CHO-APP/PS1 cells, average Aβ amounts in control samples were 320 pM for Aβ40 and 79 pM for Aβ42. The relative levels of Aβ and Aβ42 were normalized to values obtained from non-treated and vehicle-treated cells and are shown as % to control+s.d.). One of three representative experiments are shown.
CHO-APP/PS1 (A) and CHO-APP/ΔE9PS1 (B) cells were treated with the indicated compounds at 50 μM for 8 hrs and the levels of secreted Aβ40 and Aβ42 were determined as described in FIG. 1. […] The PS1-ΔE9 FAD mutation diminished the Aβ42 response to Rk1 treatment (B).

γ-secretase [3] = test: Cell-free generation of intracellular domains (AICD, NICD, p75-ICD) in membrane fractions of 293 cells; format: biochemical; conditions: membrane fractions from 293 cells overexpressing APP, Notch-ΔE or p75-ΔE
Protocol: Membrane fractions isolated from 293 cells overexpressing either APP (A), Notch-ΔE (B) or p75-ΔE (C) and incubated in the presence of indicated compounds: Compound E (CpdE, general γ-secretase inhibitor), Rgk351, Rk1 and sulindac sulfide (SS).
Since the effect of Rk1 was rather selective to Aβ42 (but not Aβ40) in a cell-based assay, the question of whether Rk1 affects other γ-secretase-mediated cleavage events, including the generation of AICD resulted from a transmembrane cleavage of APP distal from either Aβ40 or Aβ42 site, and γ-secretase-mediated intramembrane cleavage of Notch1 or p75 neurotrophin receptor (p75NTR) to yield Notch1 or p75NTR intracellular domains (NICD or p75-ICD, respectively) was tested. The cell-free generation of AICD, NICD and p75-ICD was not affected by incubation with Rgk351 or Rk1 (FIG. 5).

γ-secretase [4] = test: Cell-free γ-secretase assay (CHAPSO-solubilized membrane fractions, Aβ ELISA); format: biochemical; conditions: cell-free γ-secretase assay, partially purified γ-secretase complex; 100 μM
Protocol: (A) CHAPSO-solubilized membrane fractions were incubated with recombinant γ-secretase substrates together with the indicated compounds (at 100 μM) and the levels of Aβ42 and Aβ40 were determined by ELISA as described (27-29). (B) Dose-response of Aβ40 and Aβ42-lowering activity of Rk1 and (20S)Rg3 in a cell-free γ-secretase assay.
Next, the inhibitory effects of Rk1 and (20S)Rg3 on Aβ generation in an in vitro γ-secretase assay was studied. […] In contrast, naproxen, an NSAID without Aβ42-lowering activity, had no effects on Aβ42 production (FIG. 15A).

CC(C)=CCCC(C)(O)[C@H]1CC[C@]2(C)[C@@H]1[C@H](O)C[C@@H]1[C@@]3(C)CC[C@H](O)C(C)(C)[C@@H]3CC[C@]12C (stereo in doubt) [PPD, Protopanaxadiol]
Aβ42-lowering activity [1]: No | inhibitory effects on Aβ40 or Aβ42 generation [2]: did not confer any inhibitory effects

CC(C)=CCC[C@@](C)(O)[C@H]1CC[C@]2(C)[C@@H]1[C@H](O)C[C@@H]1[C@@]3(C)CC[C@H](O[C@@H]4O[C@H](CO)[C@@H](O)[C@H](O)[C@H]4O[C@@H]4O[C@H](CO)[C@@H](O)[C@H](O)[C@H]4O)C(C)(C)[C@@H]3CC[C@]12C [(20R)Rg3]
generation of Aβ42 (Aβ42 levels in the medium, ELISA, normalized to intracellular full-length APP) ([1]; CHO cells stably transfected with human APP695, 50 μg/ml, 8 hrs): reduce | Aβ42-lowering activity [1]: Yes | secretion of Aβ42 (initial screening) ([1]; heat-processing derived ginsenosides): not affected | potency of Aβ42-reducing activity (order) (CHO-APP/PS1 cells): Rk1>/=(20S)Rg3>Rg5>(20R)Rg3

C[C@H](NC(=O)Cc1cc(F)cc(F)c1)C(=O)N[C@H]1N=C(c2ccccc2)c2ccccc2N(C)C1=O [Compound E]
cell-free generation of AICD, NICD and p75-ICD (γ-secretase [3]): Very low amounts; also recorded: efficiently inhibited

CC1(C)CCC[C@](C)([C@H]2CC[C@]3(C)[C@@H]2[C@H](O)C[C@@H]2[C@@]4(C)CC[C@H](O)C(C)(C)[C@@H]4CC[C@]23C)O1 [PD, 20(S)-panaxadiol]
inhibitory effects on Aβ40 or Aβ42 generation [2]: did not confer any inhibitory effects

CC(C)=CCC[C@](C)(O)[C@H]1CC[C@]2(C)[C@@H]1[C@H](O)C[C@@H]1[C@@]3(C)CC[C@H](O)C(C)(C)[C@@H]3[C@@H](O)C[C@]12C [PPT, Protopanaxatiol]
Aβ42-lowering activity [1]: Yes | levels of Aβ42 [2]: without affecting | production of Aβ42 [2]: reduced

CC1(C)CCC[C@](C)([C@H]2CC[C@]3(C)[C@@H]2[C@H](O)C[C@@H]2[C@@]4(C)CC[C@H](O)C(C)(C)[C@@H]4[C@@H](O)C[C@]23C)O1 [PT, 20(S)-panaxatriol]
levels of Aβ42 [2]: without affecting | production of Aβ42 [2]: reduced

CC(C)=CCC[C@](C)(O[C@@H]1O[C@H](CO[C@@H]2O[C@H](CO)[C@@H](O)[C@H](O)[C@H]2O)[C@@H](O)[C@H](O)[C@H]1O)[C@H]1CC[C@]2(C)[C@@H]1[C@H](O)C[C@@H]1[C@@]3(C)CC[C@H](O[C@@H]4O[C@H](CO)[C@@H](O)[C@H](O)[C@H]4O[C@@H]4O[C@H](CO)[C@@H](O)[C@H](O)[C@H]4O)C(C)(C)[C@@H]3CC[C@]12C [Rb1]
inhibitory effects on Aβ40 and Aβ42 production [1]: None | Aβ42-lowering activity [1]: No

CC(C)=CCC[C@](C)(O[C@@H]1O[C@H](CO[C@@H]2OC[C@H](O)[C@H](O)[C@H]2O)[C@@H](O)[C@H](O)[C@H]1O)[C@H]1CC[C@]2(C)[C@@H]1[C@H](O)C[C@@H]1[C@@]3(C)CC[C@H](O[C@@H]4O[C@H](CO)[C@@H](O)[C@H](O)[C@H]4O[C@@H]4O[C@H](CO)[C@@H](O)[C@H](O)[C@H]4O)C(C)(C)[C@@H]3CC[C@]12C [Rb2]
inhibitory effects on Aβ40 and Aβ42 production [1]: None | Aβ42-lowering activity [1]: No

CC(C)=CCC[C@](C)(O[C@@H]1O[C@H](CO[C@@H]2OC[C@@H](O)[C@H](O)[C@H]2O)[C@@H](O)[C@H](O)[C@H]1O)[C@H]1CC[C@]2(C)[C@@H]1[C@H](O)C[C@@H]1[C@@]3(C)CC[C@H](O[C@@H]4O[C@H](CO)[C@@H](O)[C@H](O)[C@H]4O[C@@H]4O[C@H](CO)[C@@H](O)[C@H](O)[C@H]4O)C(C)(C)[C@@H]3CC[C@]12C [Rb3]
Aβ42-lowering activity [1]: No

CC(C)=CCC[C@](C)(O[C@@H]1O[C@H](CO)[C@@H](O)[C@H](O)[C@H]1O)[C@H]1CC[C@]2(C)[C@@H]1[C@H](O)C[C@@H]1[C@@]3(C)CC[C@H](O)C(C)(C)[C@@H]3[C@@H](O[C@@H]3O[C@H](CO)[C@@H](O)[C@H](O)[C@H]3O)C[C@]12C [Rg1]
inhibitory effects on Aβ40 and Aβ42 production [1]: None | Aβ42-lowering activity [1]: No | production of Aβ42 in cells (summary statement) ([1]; mammalian cells, in vitro): no amyloid reducing activity in vitro

C=C(CCC=C(C)C)[C@H]1CC[C@]2(C)[C@@H]1[C@H](O)C[C@@H]1[C@@]3(C)CC[C@H](O)C(C)(C)[C@@H]3[C@@H](O[C@@H]3O[C@H](CO)[C@@H](O)[C@H](O)[C@H]3O)C[C@]12C [Rk3]
Aβ42-lowering activity [1]: No

COc1ccc2cc([C@H](C)C(=O)O)ccc2c1 [naproxen, reference compound]
Aβ42 generation in vitro (γ-secretase [4]): no effects

CSc1ccc(/C=C2/C(C)=C(CC(=O)O)c3cc(F)ccc32)cc1 [sulindac sulfide, reference compound]
Aβ40 production ([1]; overnight treatment, CHO-APP cells): slightly affected | Aβ42 generation in vitro (γ-secretase [4]): potently inhibited | cell-free generation of AICD, NICD and p75-ICD (γ-secretase [3]): abundantly produced | cell-free generation of AICD, NICD and p75-ICD (γ-secretase [3]; listed as sulinac sulfide): did not affect
